According to US10280134B1, “Potent cytotoxic agent against human hepatocellular carcinoma cell line based on 2-aryl hydrazonopropanal pharmacophore” (King Abdulaziz University, priority 2018, dated 2019):
Converted amounts (≈) assume the structure as drawn. Read-outs that look alike come from different tables or passages of the source.

What was measured:
[1] = system: BJ1 (Normal Skin Fibroblast); assay: MTT cytotoxicity assay on normal human fibroblast cell line BJ1; assay type: cell-based; details: for Remarks (% lethality at 100 ppm): BJ1 normal skin fibroblast, 48 hrs; for IC50 / IC90: Homo sapiens, Skin fibroblast, 48 h; for IC50: read-out: IC50: Lethal concentration of the sample which causes the death of 50% of cells in 48 hrs; for IC90: read-out: IC90: Lethal concentration of the sample which causes the death of 90% of cells in 48 hrs
Protocol: The activity of the test compounds on a non-cancerous, normal human fibroblast cell line, BJ1, was assessed by the mitochondrial dependent reduction of yellow MTT (3-(4,5-dimethylthiazol-2-yl)-2,5-diphenyl tetrazolium bromide) to purple formazan; Mosmann T. Rapid colorimetric assays for cellular growth and survival: Application to proliferation and cytotoxicity assays. J Immunol Methods.
All procedures were done in a sterile area using a Laminar flow cabinet biosafety class II level (Baker, SG4031NT, Sanford, Me., USA).
(§1) Cells were batch cultured for 10 days, then seeded at concentration of 10×10^3 cells/well in fresh complete growth medium in 96-well microtiter plastic plates at 37° C. for 24 h under 5% CO2 using a water jacketed Carbon dioxide incubator (Sheldon, TC2323, Cornelius, Oreg., USA). […] To stop the reaction and dissolving the formed crystals, 200 μL of 10% Sodium dodecyl sulphate (SDS) in deionized water was added to each well and incubated overnight at 37° C.
(§2) A statistical significance was tested between samples and negative control (cells with vehicle) using independent t-test by SPSS 11 program. DMSO is the vehicle used for dissolution of plant extracts and its final concentration on the cells was less than 0.2%. The percentage of change in viability was calculated according to the formula: ((Reading of extract/Reading of negative control)−1)×100.
Data Analysis of Cytotoxic Activity Test. Sample Testing Against the Normal Human Epithelial Cell Line: BJ1 (Normal Skin Fibroblast).

[2] = system: hepatocellular carcinoma cell line HEPG2; assay: MTT cytotoxicity assay on human hepatocellular carcinoma cell line HePG2; assay type: cell-based; details: for Remarks (% lethality at 100 ppm): HEPG2, at 100 ppm; for IC50 / IC90: Homo sapiens; for IC90: read-out: IC90: Lethal concentration of the sample which causes the death of 90% of cells in 48 hrs
Protocol: Cell viability was assessed by the mitochondrial dependent reduction of yellow MTT (3-(4,5-dimethylthiazol-2-yl)-2,5-diphenyl tetrazolium bromide) to purple formazan; Mossman, et al., id.
All procedures were done in a sterile area using a Laminar flow cabinet biosafety class II level (Baker, SG403INT, Sanford, Me., USA).
as §1, §2
Samples Tested Against the Human Tumor Cell Line(s): HePG 2 a Human Hepatocellular Carcinoma Cell Line.

[3] = HEPG2, MTT, 48 hrs, 100 to 0.78 μg/ml, read-out: IC50: Lethal concentration of the sample which causes the death of 50% of cells in 48 hrs
[4] = HEPG2, MTT, 48 hrs, 100 to 0.78 μg/ml

| Compound | Remarks (% lethality at 100 ppm) [1] [% at 100 ppm] | safety on normal human cell line (in words) ([1]; normal human epithelial cell line (BJ1)) | Remarks (% lethality at 100 ppm) ([2]; 48 hrs) [% at 100 ppm] | IC50 [2, 3] [µg/mL] | IC90 [2, 4] [µg/mL] | IC50 ([2]; HEPG2, positive control, Table 3, Mw = 579.99, read-out: IC50 (positive control)) [µM] | IC50 [1] [µg/mL] | IC90 [1] [µg/mL] |
| --- | --- | --- | --- | --- | --- | --- | --- | --- |
| COC(=O)c1ccccc1N/N=C(\C=O)C(=O)c1ccccc1 [Compound 1] | 41.5 | substantially safe | 95.3 | 45.5 | 77.3 (≈ 249 µM) |  |  |  |
| COc1cccc2c1C(=O)c1c(O)c3c(c(O)c1C2=O)C[C@@](O)(C(=O)CO)C[C@@H]3O[C@H]1C[C@H](N)[C@H](O)[C@H](C)O1 [Doxorubicin, doxorubicin, reference compound] |  |  |  |  |  | 37.8 |  |  |
| COC(=O)c1ccccc1N/N=C(\C=O)C(C)=O [Compound 2] | 100 |  | 100 | 15.7 | 28.3 (≈ 114 µM) |  | 16.9 (≈ 68.1 µM) | 29.1 (≈ 117 µM) |
| COC(=O)c1ccccc1N/N=C(\C=O)C(=O)c1cccs1 [Compound 3] | 80 |  | 100 | 14.7 | 26 (≈ 82.2 µM) |  | 61 (≈ 193 µM) | 105 (≈ 332 µM) |
